Data: paper PMC11578424, “Discovery of novel 2,4-diarylaminopyrimidine hydrazone derivatives as potent anti-thyroid cancer agents capable of inhibiting FAK” (Journal of Enzyme Inhibition and Medicinal Chemistry, 2024)
Like-named read-outs stand apart in the source and are kept apart here.

Key:
[1] = system: thyroid cancer cells TPC-1; assay: MTT antiproliferative assay; assay type: cell-based; details: MTT assay, 48 h, average with SD (n = 3, duplicate), read-out: IC50 (μM), antiproliferative activity against thyroid cancer cells TPC-1
Description: Thyroid cancer cells TCP-1 were provided by Wuhan Servicebio Co., Ltd. TCP-1 cells are cultured in RPMI-1640 medium supplemented with 10% foetal bovine serum (FBS), 100 U/mL penicillin, and 0.1 mg/mL streptomycin. All cells are maintained in a humidified incubator at 37 °C with 5% CO2.
The TCP-1 cell line is seeded into a 96-well plate and incubated under conditions of 37 °C and 5% CO2. After the cells adhere, different concentrations of compounds are added and the incubation continues for 48 h under the same conditions. Subsequently, MTT reagent is added to the medium and the incubation is continued for an additional 4 h at 37 °C. After the incubation, the medium is aspirated, and 150 μL of DMSO solution is added to dissolve the purple-blue crystals by shaking. The absorbance of the solution is measured at a wavelength of 490 nm. The IC50 value of the compounds is calculated using SPSS software version 20.0.

[2] = system: MCF7 cells; details: cited from earlier work

| SMILES | melting point [°C] | IC50 ([1]; Homo sapiens, TPC1, 48 h) [µM] | IC50 [1] [µM] | IC50 ([2]; read-out: IC50, antiproliferative activity against MCF7 cells) [nM] | IC50 ([2]; read-out: IC50, proliferative activity of MCF7 cells) [nM] |
| --- | --- | --- | --- | --- | --- |
| CNC(=O)c1ccccc1Nc1nc(N/N=C/c2ccc(OC)c(F)c2)ncc1Cl [14q, (E)-2-((5-chloro-2–(2-(3-fluoro-4-methoxybenzylidene)hydrazineyl)pyrimidin-4-yl)amino)-N-methylbenzamide] | 234.1 to 235.7 | 0.386 ± 0.047 |  |  |  |
| CNC(=O)c1ccccc1Nc1nc(N/N=C/c2ccccn2)ncc1Cl [14s, (E)-2-((5-chloro-2–(2-(pyridin-2-ylmethylene)hydrazineyl)pyrimidin-4-yl)amino)-N-methylbenzamide] | 217.1 to 218.2 | 0.272 ± 0.016 |  |  |  |
| CNC(=O)c1ccccc1Nc1nc(N/N=C/c2ccc(OC)cc2)ncc1Cl [14c, (E)-2-((5-chloro-2–(2-(4-methoxybenzylidene)hydrazineyl)pyrimidin-4-yl)amino)-N-methylbenzamide] | 187.7 to 188.9 | 0.257 ± 0.004 |  |  |  |
| CNC(=O)c1ccccc1Nc1nc(N/N=C/c2ccccc2)ncc1Cl [14a, (E)-2-((2–(2-benzylidenehydrazineyl)-5-chloropyrimidin-4-yl)amino)-N-methylbenzamide] | 199.1 to 202.1 | 0.306 | 0.246 ± 0.038 |  |  |
| CNC(=O)c1ccccc1Nc1nc(N/N=C/c2ccc3cc[nH]c3c2)ncc1Cl [14ab, (E)-2-((2–(2-((1H-indol-6-yl)methylene)hydrazineyl)-5-chloropyrimidin-4-yl)amino)-N-methylbenzamide] | 216.1 to 217.7 | 0.364 ± 0.015 |  |  |  |
| CNC(=O)c1ccccc1Nc1nc(N/N=C/c2cccc(F)c2)ncc1Cl [14 l, (E)-2-((5-chloro-2–(2-(3-fluorobenzylidene)hydrazineyl)pyrimidin-4-yl)amino)-N-methylbenzamide] | 203.3 to 205.1 | 0.428 ± 0.009 |  |  |  |
| CNC(=O)c1ccccc1Nc1nc(N/N=C/c2ccc(C)cc2)ncc1Cl [14b, (E)-2-((5-chloro-2–(2-(4-methylbenzylidene)hydrazineyl)pyrimidin-4-yl)amino)-N-methylbenzamide] | 207.1 to 208.1 | 0.296 ± 0.021 |  |  |  |
| CNC(=O)c1ccccc1Nc1nc(N/N=C/c2ccc(OC)c(OC)c2)ncc1Cl [14o, (E)-2-((5-chloro-2–(2-(3,4-dimethoxybenzylidene)hydrazineyl)pyrimidin-4-yl)amino)-N-methylbenzamide] | 214.1 to 215.2 | 0.434 ± 0.012 |  |  |  |
| CNC(=O)c1ccccc1Nc1nc(N/N=C/c2cccs2)ncc1Cl [14v, (E)-2-((5-chloro-2–(2-(thiophen-2-ylmethylene)hydrazineyl)pyrimidin-4-yl)amino)-N-methylbenzamide] | 214.6 to 216.1 | 0.153 ± 0.005 |  |  |  |
| CNC(=O)c1ccccc1Nc1nc(N/N=C/c2cccc(OC)c2)ncc1Cl [14k, (E)-2-((5-chloro-2–(2-(3-methoxybenzylidene)hydrazineyl)pyrimidin-4-yl)amino)-N-methylbenzamide] | 199.3 to 200.4 | 0.517 ± 0.031 |  |  |  |
| CNC(=O)c1ccccc1Nc1nc(N/N=C/c2ccc(C#N)cc2)ncc1Cl [14j, (E)-2-((5-chloro-2–(2-(4-cyanobenzylidene)hydrazineyl)pyrimidin-4-yl)amino)-N-methylbenzamide] | 200.7 to 202.1 | 0.126 ± 0.011 |  |  |  |
| CNC(=O)c1ccccc1Nc1nc(N/N=C/c2ccc3[nH]ccc3c2)ncc1Cl [14aa, (E)-2-((2–(2-((1H-indol-5-yl)methylene)hydrazineyl)-5-chloropyrimidin-4-yl)amino)-N-methylbenzamide] | 218.1 to 219.9 | 0.331 ± 0.012 |  |  |  |
| CNC(=O)c1ccccc1Nc1nc(N/N=C/c2ccc(C(F)(F)F)cc2)ncc1Cl [14e, (E)-2-((5-chloro-2–(2-(4-(trifluoromethyl)benzylidene)hydrazineyl)pyrimidin-4-yl)amino)-N-methylbenzamide] | 206.6 to 208.8 | 0.193 ± 0.029 |  |  |  |
| CNC(=O)c1ccccc1Nc1nc(N/N=C/c2cccnc2)ncc1Cl [14t, (E)-2-((5-chloro-2–(2-(pyridin-3-ylmethylene)hydrazineyl)pyrimidin-4-yl)amino)-N-methylbenzamide] | 217.1 to 218.1 | 0.243 ± 0.001 |  |  |  |
| CNC(=O)c1ccccc1Nc1nc(N/N=C/c2ccc([N+](=O)[O-])cc2)ncc1Cl [14i, (E)-2-((5-chloro-2–(2-(4-nitrobenzylidene)hydrazineyl)pyrimidin-4-yl)amino)-N-methylbenzamide] | 201.7 to 202.8 | 0.157 ± 0.008 |  |  |  |
| CNC(=O)c1ccccc1Nc1nc(N/N=C/c2ccc(OC)cc2F)ncc1Cl [14p, (E)-2-((5-chloro-2–(2-(2-fluoro-4-methoxybenzylidene)hydrazineyl)pyrimidin-4-yl)amino)-N-methylbenzamide] | 218.1 to 219.4 | 0.228 ± 0.065 |  |  |  |

| SMILES | melting point [°C] | IC50 ([1]; Homo sapiens, TPC1, 48 h) [µM] | IC50 [1] [µM] | IC50 ([2]; read-out: IC50, antiproliferative activity against MCF7 cells) [nM] | IC50 ([2]; read-out: IC50, proliferative activity of MCF7 cells) [nM] |
| --- | --- | --- | --- | --- | --- |
| CNC(=O)c1ccccc1Nc1nc(N/N=C/c2ccc(Cl)cc2)ncc1Cl [14 g, (E)-2-((5-chloro-2–(2-(4-chlorobenzylidene)hydrazineyl)pyrimidin-4-yl)amino)-N-methylbenzamide] | 194.1 to 195.8 | 0.409 ± 0.093 |  |  |  |
| CNC(=O)c1ccccc1Nc1nc(N/N=C/c2ccncc2)ncc1Cl [14 u, (E)-2-((5-chloro-2–(2-(pyridin-4-ylmethylene)hydrazineyl)pyrimidin-4-yl)amino)-N-methylbenzamide] | 215.1 to 216.8 | 0.189 ± 0.005 |  |  |  |
| C/C(=N\N=c1/[nH]c2cc(F)c(F)cc2n1C)c1ncccn1 [compound 8] |  |  |  | 3.3 |  |
| CNC(=O)c1ccccc1Nc1nc(N/N=C/c2c[nH]c3ccc(OC)cc23)ncc1Cl [14z, (E)-2-((5-chloro-2–(2-((5-methoxy-1H-indol-3-yl)methylene) hydrazineyl)pyrimidin-4-yl)amino)-N-methylbenzamide] | 217.1 to 218.2 | 0.624 ± 0.044 |  |  |  |
| CNC(=O)c1ccccc1Nc1nc(N/N=C/c2ccc(Br)cc2)ncc1Cl [14h, (E)-2-((2–(2-(4-bromobenzylidene)hydrazineyl)-5-chloropyrimidin-4-yl)amino)-N-methylbenzamide] | 192.1 to 193.2 | 0.59 ± 0.024 |  |  |  |
| CNC(=O)c1ccccc1Nc1nc(N/N=C/c2cccc(C(F)(F)F)c2)ncc1Cl [14 m, (E)-2-((5-chloro-2–(2-(3-(trifluoromethyl)benzylidene)hydrazineyl)pyrimidin-4-yl)amino)-N-methylbenzamide] | 207.1 to 209.8 | 0.693 ± 0.017 |  |  |  |
| CNC(=O)c1ccccc1Nc1nc(N/N=C/c2ccc(F)cc2F)ncc1Cl [14r, (E)-2-((5-chloro-2–(2-(2,4-difluorobenzylidene)hydrazineyl)pyrimidin-4-yl)amino)-N-methylbenzamide] | 243.2 to 245.1 | 0.122 ± 0.032 |  |  |  |
| CNC(=O)c1ccccc1Nc1nc(N/N=C/c2cn(C)c3ccccc23)ncc1Cl [14 y] | 217.2 to 219.1 | 0.425 ± 0.023 |  |  |  |
| CNC(=O)c1ccccc1Nc1nc(N/N=C/c2ccc(OC)cc2OC)ncc1Cl [14n, (E)-2-((5-chloro-2–(2-(2,4-dimethoxybenzylidene)hydrazineyl)pyrimidin-4-yl)amino)-N-methylbenzamide] | 213.1 to 214.7 |  |  |  |  |
| Cn1c2nc(N/N=C/c3cccc(Br)c3)nc(=O)c-2cc2ccccc21 [compound 9] |  |  |  |  | 0.1 |
| CNC(=O)c1ccccc1Nc1nc(Nc2ccc(N3CCOCC3)cc2OC)ncc1Cl [TAE-226, reference compound] |  | 1.08 ± 0.023 |  |  |  |
| CNC(=O)c1ccccc1Nc1nc(N/N=C/c2ccc(O)cc2)ncc1Cl [14d, (E)-2-((5-chloro-2–(2-(4-hydroxybenzylidene)hydrazineyl)pyrimidin-4-yl)amino)-N-methylbenzamide] | 187.8 to 189.2 | 0.255 ± 0.025 |  |  |  |
| CNC(=O)c1ccccc1Nc1nc(N/N=C(\C)c2ccc(OC)cc2)ncc1Cl [14ac, (E)-2-((5-chloro-2–(2-(1–(4-methoxyphenyl)ethylidene)hydrazineyl)pyrimidin-4-yl)amino)-N-methylbenzamide] | 216.7 to 217.1 | 0.612 ± 0.016 |  |  |  |
| CNC(=O)c1ccccc1Nc1nc(N/N=C/c2ccc3cccnc3c2)ncc1Cl [14w, (E)-2-((5-chloro-2–(2-(quinolin-7-ylmethylene)hydrazineyl)pyrimidin-4-yl)amino)-N-methylbenzamide] | 241.7 to 242.1 | 0.413 ± 0.015 |  |  |  |
| CNC(=O)c1ccccc1Nc1nc(N/N=C(\C)c2ccc(F)cc2)ncc1Cl [14ad, (E)-2-((5-chloro-2–(2-(1–(4-fluorophenyl)ethylidene)hydrazineyl)pyrimidin-4-yl)amino)-N-methylbenzamide] | 222.6 to 223.8 | 1.46 ± 0.066 |  |  |  |
| CNC(=O)c1ccccc1Nc1nc(N/N=C/c2c[nH]c3ccccc23)ncc1Cl [14x, (E)-2-((2–(2-((1H-indol-3-yl)methylene)hydrazineyl)-5-chloropyrimidin-4-yl)amino)-N-methylbenzamide] | 203.3 to 204.8 | 0.357 ± 0.01 |  |  |  |
